Converted amounts (≈) assume the structure as drawn. Like-named read-outs stand apart in the source and are kept apart here.
Legend:
Type in all cases: cell-based
[1] = tested on: P. falciparum CQ-sensitive (CQ-S) D10 strain; assay: antiplasmodial drug susceptibility assay (pLDH), CQ-sensitive strain; settings: Plasmodium falciparum; P. falciparum D10, 72 h, pLDH; mean value with standard deviation; read-out: IC50 D10 (CQ-S)
Method: (§1) P. falciparum cultures were carried out according to Trager and Jensen with slight modifications. The CQ-sensitive strain D10 and the CQ-resistant strain W2 were maintained at 5% hematocrit (human A-positive erythrocytes) in RPMI 1640 medium (EuroClone S.p.A, Milan, Italy) with the addition of 1% AlbuMax (Invitrogen, San Diego, California, USA), 0.01% hypoxanthine, 20 mM Hepes, and 2 mM glutamine at 37 °C in a standard gas mixture (1% O2, 5% CO2, and 94% N2). […] Drugs were placed in 96-well flat-bottomed microplates, and serial dilutions were made. Asynchronous cultures with parasitaemia of 1–1.5% and 1% final hematocrit were aliquoted into the plates and incubated for 72 h at 37 °C. Parasite growth was determined spectrophotometrically (OD650nm) by measuring the activity of the parasite lactate dehydrogenase (pLDH), as described in a modified version of Makler’s method in control- and drug-treated cultures. The antiplasmodial activity is expressed as 50% inhibitory concentrations (IC50); each IC50 value is the mean ± standard deviation of at least three separate experiments performed in duplicate.

[2] = tested on: P. falciparum CQ-resistant (CQ-R) W2 strain; assay: antiplasmodial drug susceptibility assay (pLDH), CQ-resistant strain; settings: Plasmodium falciparum; P. falciparum W2, 72 h, pLDH; mean value with standard deviation; read-out: IC50 W2 (CQ-R)
Method: as §1

S. aureus ATCC 25923 = assay: broth microdilution antimicrobial assay (MIC, IC50); settings: Staphylococcus aureus, ATCC25923; for MIC: broth microdilution, 24 h, range 100–0.19 µM
Source text: (§2) Reference bacterial strains of Staphylococcus aureus (ATCC 25923) and Escherichia coli (ATCC 25922) were used in this study as Gram-positive and negative models, respectively. These reference strains were purchased from the American Type Culture Collection (ATCC, Manassas, VA, USA). Clinical isolates, identified by MALDI-TOF MS (Bruker Daltonik, GmbH, Bremen, Germany), were profiled for their antibiotic susceptibility by using the Vitek2 semiautomated system (bioMérieux, Craponne, France) and according to EUCAST (Version 12, 2022, http://www.eucast.org (accessed on 1 January 2022)). The bacterial cultures were routinely grown on 5% blood agar plates (Biolife Italiana S.r.l., Milan, Italy) and were freshly used in the antibacterial assays.
(§3) The minimum inhibitory concentrations (MICs) were determined using the microbroth dilution method in microtiter plates according to the Clinical and Laboratory Standards Institute (CLSI) guidelines. In short, microbial inocula were prepared at 0.5 McFarland in PBS and, subsequently, bacterial suspensions were diluted 1:200 in Mueller–Hinton broth (Sigma-Aldrich, St. Louis, MO, USA), while fungal inoculum was diluted 1:20 in RPMI-1640 medium (Gibco®, ThermoFisher Scientific Inc., Waltham, MA, USA), containing glucose 2%, 0.3% levo-glutamine buffered to pH 7.0 with 0.165 M 3-(N-morpholino)propanesulfonic acid (MOPS). A total of 100 µL of these microbial suspensions was introduced into a 96-well microplate and incubated with 100 µL of the compounds, two-fold serially diluted in the range of 100–0.19 µM. Positive controls (microbial suspensions in regular media), negative controls (only compounds), solvent controls (microbial suspensions incubated with DMSO dilutions), and the reference drug controls were included in the tests. The plate was incubated at 37 °C for 24 h, and subsequently the optical density at 630 nm (OD630nm) was spectrophotometrically measured. Experiments were performed in triplicate with three biological replicates. In addition to MIC, IC50 values were measured for the active compounds. The values, corresponding to the concentration of the compound giving rise to an inhibition of growth of 50%, were obtained by interpolation on dose–response curves generated by plotting the percentages of growth inhibition, relative to the positive control (set to 100% of growth), as a function of the tested concentrations (on a logarithm scale). Statistical analysis was carried out by using GraphPad Prism version 9.4.1 for Windows (GraphPad Software, San Diego, CA, USA, www.graphpad.com).

E. coli ATCC 25923 = assay: broth microdilution antimicrobial assay (MIC); settings: Escherichia coli, ATCC25923, 24 h, range 100–0.19 µM
C. albicans ATCC 10231 = assay: broth microdilution antifungal assay (MIC); settings: Candida albicans, ATCC10231, 24 h, range 100–0.19 µM
Method: The reference strain of Candida albicans (ATCC 10231) was used in the present study and maintained on Sabouraud Dextrose Agar (Biolife Italiana S.r.l., Milan, Italy) before the antifungal assays.
as §3

[3] = tested on: clinical isolates of methicillin-resistant S. aureus (MRSA); assay: broth microdilution IC50 on MRSA clinical isolates; settings: Staphylococcus aureus; five MRSA clinical isolates, range of IC50; read-out: IC50 ranges, MRSA (n = 5)
Source text: as §2, §3

[4] = cell viability and proliferation assay (CCK-8/WST8); settings: human, WS1 cells (human-derived fibroblasts, ATCC CRL-1502), mean value with standard deviation
Method: WS1 cells (ATCC CRL-1502) were selected as a model system to investigate the effect of PTZ-quinoline hybrid compounds on human-derived fibroblasts. Briefly, cells were cultured in DMEM-High glucose supplemented with 10% fetal bovine serum (FBS) (Carlo Erba Reagents, Milan, Italy), 100 U/mL penicillin, and 100 µg/mL streptomycin at 37 °C with 5% CO2. For experiments, cells were seeded into 96-well plates at 0.7 × 10^4 cells/well, and incubated at 37 °C for 24 h. […] Cell viability was assessed by a WST8-based assay according to the manufacturer’s instructions (CCK-8, Cell Counting Kit-8, Dojindo Molecular Technologies, Rockville, MD, USA). After 48 h of incubation, culture medium was removed from each well, the monolayer was washed with PBS, and 100 µL of fresh medium containing 10 µL of CCK-8 solution was added. Following a 2 h incubation at 37 °C, the OD450nm was read, and data were expressed as the percentage of cell viability relative to the untreated controls. The CC50 was obtained on the corresponding dose–response curves generated as previously reported for IC50 values. Experiments were carried out in triplicate in three biological replicates.

[5] = S. aureus ATCC 25923, 24 h, OD630, mean value with standard deviation, read-out: IC50 ATCC 25923
[6] = reference strain, range of IC50, read-out: IC50 ranges, ATCC 25923

Structure (SMILES)	IC50 [1] [nM]	IC50 [2] [nM]	IC50 (S. aureus ATCC 25923; [5]) [µM]	MIC (S. aureus ATCC 25923) [µM]	IC50 (S. aureus ATCC 25923; [6]) [µM]	MIC (E. coli ATCC 25923) [µM]	MIC (C. albicans ATCC 10231) [µM]	IC50 [3] [µM]	CC50 at 48 h [4] [µM]
Clc1ccc2c(c1)N(Cc1cn(CCCNc3ccnc4cc(Cl)ccc34)nn1)c1ccccc1S2 [Compound 5b, 7-chloro-N-(3-(4-((2-chloro-10H-phenothiazin-10-yl)methyl)-1H-1,2,3-triazol-1-yl)propyl)quinolin-4-amine]	146 ± 6	135 ± 17	5.03 ± 1.72	6.25 to 12.5 (≈ 3.33 to 6.67 µg/mL)	3.31 to 6.75	> 100	> 100	6.18 to 10.3	22.1 ± 0.66
Clc1ccc2c(NCCCn3cc(CN4c5ccccc5Sc5ccccc54)nn3)ccnc2c1 [Compound 5a, N-(3-(4-((10H-phenothiazin-10-yl)methyl)-1H-1,2,3-triazol-1-yl)propyl)-7-chloroquinolin-4-amine]	292 ± 78	174 ± 25	6.73 ± 1.32	12.5 (≈ 6.24 µg/mL)	5.41 to 8.05	> 100	> 100	6.4 to 9.63	11.8 ± 0.14
Clc1ccc2c(c1)N(Cc1cn(CCNc3ccnc4cc(Cl)ccc34)nn1)c1ccccc1S2 [Compound 4b, 7-chloro-N-(2-(4-((2-chloro-10H-phenothiazin-10-yl)methyl)-1H-1,2,3-triazol-1-yl)ethyl)quinolin-4-amine]	156 ± 18	154 ± 2	4.86 ± 0.89	6.25 to 12.5 (≈ 3.25 to 6.49 µg/mL)	3.97 to 5.75	> 100	> 100	4.42 to 6.48	12.7 ± 3.51
Clc1ccc2c(NCCn3cc(CN4c5ccccc5Sc5ccccc54)nn3)ccnc2c1 [Compound 4a, N-(2-(4-((10H-phenothiazin-10-yl)methyl)-1H-1,2,3-triazol-1-yl)ethyl)-7-chloroquinolin-4-amine]	142 ± 20	200 ± 30	7.49 ± 0.15	12.5 (≈ 6.06 µg/mL)	7.34 to 7.64	> 100	> 100	7.75 to 8.98	17.9 ± 3.23
Clc1ccc2c(NCCCCCn3cc(CN4c5ccccc5Sc5ccccc54)nn3)ccnc2c1 [Compound 6a, N-(5-(4-((10H-phenothiazin-10-yl)methyl)-1H-1,2,3-triazol-1-yl)pentyl)-7-chloroquinolin-4-amine]	326 ± 120	377 ± 66		> 100		> 100	> 100		48.3 ± 0.9
